Assay results taken from paper PMC2409929 (British Journal of Cancer, 2004).
Marks after values point to notes of the source that are not given here.

System: patients with metastatic colorectal cancer
Assay: Toxicity graded by NCI-CTC in the phase II trial
Format: in vivo, human
Conditions: for Anaemia, Grade 3–4, %Patients / Anaemia, all grades, %Patients / Leukocytopenia, Grade 3–4, %Patients / Leukocytopenia, all grades, %Patients / Neutropenia, Grade 3–4, %Patients / Neutropenia, all grades, %Patients / Thrombocytopenia, Grade 3–4, %Patients / Thrombocytopenia, all grades, %Patients: worst grade during study
Experimental: Haematology was checked weekly.
Otherwise, they were analysed by nonparametric methods. […] All tests for significance were two-tailed.

[1] = arm A (350 mg m^−2 90-min i.v. q3 weeks)
[2] = arm A (350 mg m^−2 90-min i.v. q3 weeks), possibly or probably related
[3] = arm B (125 mg m^−2 90-min i.v. weekly × 4 q6 weeks)
[4] = arm B (125 mg m^−2 90-min i.v. weekly × 4 q6 weeks), possibly or probably related
[5] = arm C (250 mg m^−2 90-min i.v. q2 weeks)
[6] = arm C (250 mg m^−2 90-min i.v. q2 weeks), possibly or probably related
[7] = arm D (10 mg m^−2 day^−1 14-day continuous infusion q3 weeks)
[8] = arm D (10 mg m^−2 day^−1 14-day continuous infusion q3 weeks), possibly or probably related

CCc1c2c(nc3ccc(OC(=O)N4CCC(N5CCCCC5)CC4)cc13)-c1cc3c(c(=O)n1C2)COC(=O)[C@]3(O)CC [irinotecan]
Anaemia, Grade 3–4, %Cycles [1]: 1% | Anaemia, all grades, %Cycles [1]: 92% | Episodes of grade 3–4 neutropenia with duration <8 days [1]: 53% | Febrile neutropenia, %Patients [1]: 75% | Leukocytopenia, Grade 3–4, %Cycles [1]: 15% | Leukocytopenia, all grades, %Cycles [1]: 70% | Neutropenia, Grade 3–4, %Cycles [1]: 21% | Neutropenia, all grades, %Cycles [1]: 65% | Neutropenic infection, %Cycles [1]: 1% | Neutropenic infection, %Patients [1]: 2% | Number of patients with at least one grade 3–4 adverse event possibly or probably related to irinotecan [1]: 12 | Patients with at least one grade 3–4 adverse event possibly or probably related to irinotecan, % [1]: 29% | Thrombocytopenia, Grade 3–4, %Cycles [1]: 0/0% | Thrombocytopenia, all grades, %Cycles [1]: 14% | Alopecia, all grades, % of patients [2]: 71 ^b % | Anorexia, all grades, % of patients [2]: 12% | Cholinergic syndrome, all grades, % of patients [2]: 68 ^a % | Diarrhoea, Grade 3–4, % of patients [2]: 10% | Diarrhoea, all grades, % of patients [2]: 88% | Fatigue, Grade 3–4, % of patients [2]: 7% | Fatigue, all grades, % of patients [2]: 51% | Fever in absence of infection, Grade 3–4, % of patients [2]: 2% | Fever in absence of infection, all grades, % of patients [2]: 12% | Gastrointestinal pain, Grade 3–4, % of patients [2]: 2% | Gastrointestinal pain, all grades, % of patients [2]: 17% | Infection, Grade 3–4, % of patients [2]: 2% | Infection, all grades, % of patients [2]: 7% | Nausea, Grade 3–4, % of patients [2]: 15% | Nausea, all grades, % of patients [2]: 73% | Vomiting, Grade 3–4, % of patients [2]: 10% | Vomiting, all grades, % of patients [2]: 54% | Median time to recovery from grade 3–4 neutropenia (arm A (350 mg m^−2 90-min i.v. q3 weeks), range 6–14): 7 days | Median number of days to grade 3–4 nadir (neutropenia) (arm A (350 mg m^−2 90-min i.v. q3 weeks), range 6–17): 9 days | Anaemia, Grade 3–4, %Patients [1]: 2% | Anaemia, all grades, %Patients [1]: 98% | Leukocytopenia, Grade 3–4, %Patients [1]: 20% | Leukocytopenia, all grades, %Patients [1]: 73% | Neutropenia, Grade 3–4, %Patients [1]: 34% | Neutropenia, all grades, %Patients [1]: 73% | Thrombocytopenia, Grade 3–4, %Patients [1]: 0/0% | Thrombocytopenia, all grades, %Patients [1]: 24% | Anaemia, Grade 3–4, %Cycles [3]: 1% | Anaemia, all grades, %Cycles [3]: 87% | Episodes of grade 3–4 neutropenia with duration <8 days [3]: 77% | Febrile neutropenia, %Cycles [3]: 2% | Febrile neutropenia, %Patients [3]: 5% | Leukocytopenia, Grade 3–4, %Cycles [3]: 6% | Leukocytopenia, all grades, %Cycles [3]: 53% | Neutropenia, Grade 3–4, %Cycles [3]: 12% | Neutropenia, all grades, %Cycles [3]: 50% | Number of patients with at least one grade 3–4 adverse event possibly or probably related to irinotecan [3]: 11 | Patients with at least one grade 3–4 adverse event possibly or probably related to irinotecan, % [3]: 30% | Thrombocytopenia, Grade 3–4, %Cycles [3]: 0/0% | Thrombocytopenia, all grades, %Cycles [3]: 6% | Alopecia, all grades, % of patients [4]: 43% | Anorexia, all grades, % of patients [4]: 14% | Cholinergic syndrome, all grades, % of patients [4]: 41 ^a % | Diarrhoea, Grade 3–4, % of patients [4]: 24% | Diarrhoea, all grades, % of patients [4]: 76% | Fatigue, Grade 3–4, % of patients [4]: 3% | Fatigue, all grades, % of patients [4]: 38% | Fever in absence of infection, all grades, % of patients [4]: 19% | Gastrointestinal pain, Grade 3–4, % of patients [4]: 3% | Gastrointestinal pain, all grades, % of patients [4]: 16% | Infection, Grade 3–4, % of patients [4]: 5% | Infection, all grades, % of patients [4]: 11% | Nausea, Grade 3–4, % of patients [4]: 5% | Nausea, all grades, % of patients [4]: 73% | Vomiting, Grade 3–4, % of patients [4]: 3% | Vomiting, all grades, % of patients [4]: 57% | Median time to recovery from grade 3–4 neutropenia (arm B (125 mg m^−2 90-min i.v. weekly × 4 q6 weeks), range 2–15): 7 days | Median number of days to grade 3–4 nadir (neutropenia) (arm B (125 mg m^−2 90-min i.v. weekly × 4 q6 weeks), range 4–13): 7 days | Anaemia, Grade 3–4, %Patients [3]: 3% | Anaemia, all grades, %Patients [3]: 92% | Leukocytopenia, Grade 3–4, %Patients [3]: 14% | Leukocytopenia, all grades, %Patients [3]: 68% | Neutropenia, Grade 3–4, %Patients [3]: 25% | Neutropenia, all grades, %Patients [3]: 61% | Thrombocytopenia, Grade 3–4, %Patients [3]: 0/0% | Thrombocytopenia, all grades, %Patients [3]: 11% | Anaemia, Grade 3–4, %Cycles [5]: 4/4% | Anaemia, all grades, %Cycles [5]: 90% | Discontinuation due to toxicity, main reason diarrhoea [5]: 7% | Episodes of grade 3–4 neutropenia with duration <8 days [5]: 84% | Febrile neutropenia, %Cycles [5]: 1% | Febrile neutropenia, %Patients [5]: 7% | Leukocytopenia, Grade 3–4, %Cycles [5]: 6% | Leukocytopenia, all grades, %Cycles [5]: 56% | Neutropenia, Grade 3–4, %Cycles [5]: 20% | Neutropenia, all grades, %Cycles [5]: 57% | Neutropenic infection, %Cycles [5]: 1% | Neutropenic infection, %Patients [5]: 2% | Number of patients with at least one grade 3–4 adverse event possibly or probably related to irinotecan [5]: 14 | Patients who discontinued treatment due to toxicity (from the study drug) [5]: 11% | Patients with at least one grade 3–4 adverse event possibly or probably related to irinotecan, % [5]: 30% | Thrombocytopenia, Grade 3–4, %Cycles [5]: 0/0% | Thrombocytopenia, all grades, %Cycles [5]: 6% | Alopecia, all grades, % of patients [6]: 67 ^b % | Anorexia, all grades, % of patients [6]: 17% | Cholinergic syndrome, Grade 3–4, % of patients [6]: 2% | Cholinergic syndrome, all grades, % of patients [6]: 61 ^a % | Diarrhoea, Grade 3–4, % of patients [6]: 13% | Diarrhoea, all grades, % of patients [6]: 74% | Fatigue, Grade 3–4, % of patients [6]: 4% | Fatigue, all grades, % of patients [6]: 61% | Fever in absence of infection, Grade 3–4, % of patients [6]: 4% | Fever in absence of infection, all grades, % of patients [6]: 15% | Gastrointestinal pain, Grade 3–4, % of patients [6]: 2% | Gastrointestinal pain, all grades, % of patients [6]: 17% | Infection, all grades, % of patients [6]: 11% | Nausea, Grade 3–4, % of patients [6]: 9% | Nausea, all grades, % of patients [6]: 65% | Vomiting, Grade 3–4, % of patients [6]: 9% | Vomiting, all grades, % of patients [6]: 50% | Median time to recovery from grade 3–4 neutropenia (arm C (250 mg m^−2 90-min i.v. q2 weeks), range 1–12): 7 days | Median number of days to grade 3–4 nadir (neutropenia) (arm C (250 mg m^−2 90-min i.v. q2 weeks), range 6–17): 7 days | Anaemia, Grade 3–4, %Patients [5]: 4/4% | Anaemia, all grades, %Patients [5]: 91% | Leukocytopenia, Grade 3–4, %Patients [5]: 15% | Leukocytopenia, all grades, %Patients [5]: 70% | Neutropenia, Grade 3–4, %Patients [5]: 28% | Neutropenia, all grades, %Patients [5]: 65% | Thrombocytopenia, Grade 3–4, %Patients [5]: 0/0% | Thrombocytopenia, all grades, %Patients [5]: 15% | Anaemia, Grade 3–4, %Cycles [7]: 0/0% | Anaemia, all grades, %Cycles [7]: 83% | Discontinuation due to toxicity, main reason diarrhoea [7]: 14% | Discontinuation due to toxicity, main reason vomiting [7]: 14% | Episodes of grade 3–4 neutropenia with duration <8 days [7]: 25% | Leukocytopenia, Grade 3–4, %Cycles [7]: 3% | Leukocytopenia, all grades, %Cycles [7]: 24% | Neutropenia, Grade 3–4, %Cycles [7]: 5% | Neutropenia, all grades, %Cycles [7]: 15% | Neutropenic infection, %Cycles [7]: 1% | Neutropenic infection, %Patients [7]: 2% | Number of patients with at least one grade 3–4 adverse event possibly or probably related to irinotecan [7]: 22 | Patients who discontinued treatment due to toxicity (from the study drug) [7]: 21% | Patients with at least one grade 3–4 adverse event possibly or probably related to irinotecan, % [7]: 50% | Thrombocytopenia, Grade 3–4, %Cycles [7]: 3% | Thrombocytopenia, all grades, %Cycles [7]: 8% | Alopecia, all grades, % of patients [8]: 34 ^b % | Anorexia, Grade 3–4, % of patients [8]: 5% | Anorexia, all grades, % of patients [8]: 34% | Cholinergic syndrome, all grades, % of patients [8]: 7 ^a % | Diarrhoea, Grade 3–4, % of patients [8]: 25% | Diarrhoea, all grades, % of patients [8]: 77% | Fatigue, Grade 3–4, % of patients [8]: 7% | Fatigue, all grades, % of patients [8]: 52% | Fever in absence of infection, all grades, % of patients [8]: 16% | Gastrointestinal pain, Grade 3–4, % of patients [8]: 2% | Gastrointestinal pain, all grades, % of patients [8]: 23% | Infection, Grade 3–4, % of patients [8]: 7% | Infection, all grades, % of patients [8]: 11% | Nausea, Grade 3–4, % of patients [8]: 23% | Nausea, all grades, % of patients [8]: 80% | Vomiting, Grade 3–4, % of patients [8]: 16% | Vomiting, all grades, % of patients [8]: 59% | Median time to recovery from grade 3–4 neutropenia (arm D (10 mg m^−2 day^−1 14-day continuous infusion q3 weeks), range 4–4): 4 days | Median number of days to grade 3–4 nadir (neutropenia) (arm D (10 mg m^−2 day^−1 14-day continuous infusion q3 weeks), range 14–19): 16 days | Anaemia, Grade 3–4, %Patients [7]: 0/0% | Anaemia, all grades, %Patients [7]: 91% | Leukocytopenia, Grade 3–4, %Patients [7]: 5% | Leukocytopenia, all grades, %Patients [7]: 30% | Neutropenia, Grade 3–4, %Patients [7]: 9% | Neutropenia, all grades, %Patients [7]: 23% | Thrombocytopenia, Grade 3–4, %Patients [7]: 5% | Thrombocytopenia, all grades, %Patients [7]: 9%
